Activity and IC50 data for twelve compounds are collected here from ChEMBL document CHEMBL2021902, “Type 1 phototherapeutic agents, part I: preparation and cancer cell viability studies of novel photolabile sulfenamides” (ACS Med Chem Lett, 2011).

The structures appear in SMILES notation. The source made the active and inactive calls. The rule behind the calls is not given here.

Assay type in all cases: functional, cell-based
One experiment concerns U-937. As to the kind of experiment: Cytotoxicity in UV-irradiated human U937 cells exposed to photosensitizer for 2 hrs before irradiation for 20 mins by WST-1 assay. Conditions: for IC50: U-937, light or radiation study. A general note: Tetrazolium dyes change colour on reduction, which living cells bring about.
Another experiment relates to KB. As to the kind of experiment: Cytotoxicity in UV-irradiated human KB cells exposed to photosensitizer for 2 hrs before irradiation for 20 mins by WST-1 assay.
The subject of a further experiment is HT-29. As to the kind of experiment: Cytotoxicity in UV-irradiated human HT-29 cells exposed to photosensitizer for 2 hrs before irradiation for 20 mins by WST-1 assay.
For the next experiment, the system named is HCT-116. Nature of the experiment: Cytotoxicity in UV-irradiated human HCT116 cells exposed to photosensitizer for 2 hrs before irradiation for 20 mins by WST-1 assay.

The term IC50 denotes the concentration needed to halve the response being measured. As to `O=[N+]([O-])c1ccc(SN2Cc3ccccc3Cc3ccccc32)cc1`, in the experiment with U-937, the Activity entry was “Dose-dependent effect” and the IC50 was determined as 5.7 µM.
Turning to `O=[N+]([O-])c1ccc(SN2c3ccccc3Cc3ccccc32)cc1`, the result with KB, in the experiment with HT-29 and with HCT-116 was Active. Moreover, in the experiment on U-937, the Activity entry was “Dose-dependent effect”. Moreover, in the experiment on U-937, the IC50 worked out at 1.3 µM.
With `O=[N+]([O-])c1ccc(SN(c2ccccc2)c2ccccc2)cc1`, in the experiment on U-937, the Activity entry is “Dose-dependent effect” and the IC50 was found to be 6.8 µM.
In the case of `O=[N+]([O-])c1ccc(SN2Cc3ccccc3-c3ccccc32)cc1`, in the experiment on U-937, the Activity result is “Dose-dependent effect” and the IC50 turned out to be 7.3 µM.
As to `O=[N+]([O-])c1ccc(SN2Cc3ccccc3Oc3ccccc32)cc1`, in the experiment on U-937, the Activity result is “Dose-dependent effect” and the IC50 worked out at 17.2 µM.
In the same order, the values of `O=[N+]([O-])c1ccc(SN2c3ccccc3Oc3ccccc32)cc1` are “Dose-dependent effect” and more than 20 µM.
On to `O=[N+]([O-])c1ccc(SN2c3ccccc3N=Nc3ccccc32)cc1`, for which, in the experiment on U-937, the Activity entry is “Dose-dependent effect” and the concentration for half-maximal inhibition (IC50) was more than 20 µM.
The corresponding values for `CC1=Nc2ccc(Cl)cc2N(Sc2ccc([N+](=O)[O-])cc2)c2ccccc21` are “Dose-dependent effect” and 2 µM.
In the same order, the values of `O=[N+]([O-])c1ccc(SN2CCc3ccccc3-c3ccccc32)cc1` are “Dose-dependent effect” and 6 µM.
As for `O=[N+]([O-])c1ccc(SN2c3ccccc3Sc3ccccc32)cc1`, in the experiment with U-937, the Activity entry is “Dose-dependent effect” and the IC50 is 12.4 µM.
In the same order, the values of `O=[N+]([O-])c1ccc(Sn2c3ccccc3c3ccccc32)cc1` are “Dose-dependent effect” and more than 20 µM.
`O=[N+]([O-])c1ccc(SN2c3ccccc3C=Cc3ccccc32)cc1`: the result in the experiment with KB, with HT-29 and in the experiment with HCT-116 was Active. For the same compound, the Activity result in the experiment on U-937 is “Dose-dependent effect”. For the same compound, in the experiment on U-937, the IC50 was found to be 1.2 µM.
